Experiment: mn = molality of the nth substance listed, in mol/kg
Conditions: 298.15 K, 101.3 kPa, Liquid, Taylor dispersion method

CCC(N)C(=O)O (stereo not drawn) [(.+-.)-α-aminobutyric acid] + O
Conditions	binary diffusion coefficient [m2/s]
m1 = 0.001003	8.42e-10
m1 = 0.005014	8.41e-10
m1 = 0.01003	8.39e-10
m1 = 0.02005	8.38e-10
m1 = 0.05008	8.35e-10
m1 = 0.1	8.32e-10
